The record followed here is patent US20230364119A1, “AUTOPHAGY ACTIVATOR” (Resonac Corporation, priority 2020, published 2023).

Experiment [1] has as its system mTOR gene. As to the kind of experiment: mTOR gene expression suppression effect in human senescent fibroblasts (quantitative real-time PCR). It counts as cell-based. How it is done:
Normal human fibroblasts (NB1RGB, RIKEN BRC Cell Bank) were cultured until confluent in D-MEM medium (manufactured by Sigma-Aldrich) to which 10% fetal bovine serum (manufactured by MP Biomedicals) was added. Thereafter, the cells were treated with 250 μM aqueous hydrogen peroxide for 2 hours, and cultured for 24 hours in D-MEM medium to which fresh 10% fetal bovine serum was added. The treatment with aqueous hydrogen peroxide and the cell culture operation were repeated three times, and the obtained fibroblasts were used as senescent fibroblasts.
The prepared senescent fibroblasts were prepared at a seeding density of 10000 cells/cm^2 and cultured for 24 hours in D-MEM medium (manufactured by Sigma-Aldrich) to which 10% fetal bovine serum (manufactured by MP Biomedicals) was added. Next, in Example 8, the inositol derivative A dissolved in purified water was added to the medium such that the final concentration of the inositol derivative A was 10-4% (V/V). […]
Then, using Nucleospin (registered trademark) RNA kit (manufactured by Takara Bio Inc.), RNA was extracted from senescent fibroblasts or normal human fibroblasts in each example, and cDNA was synthesized from the obtained RNA. Next, using this cDNA as a template, by quantitative real-time PCR, the expression level of mTOR gene was quantified using primers (manufactured by Takara Bio Inc.) specific to mTOR gene. […]
For orientation: Real-time PCR tracks product formation cycle by cycle.

Experiment [2] concerns ATG5 gene. As to the kind of experiment: ATG5 gene expression promoting effect in human neuroblastoma in the presence of amyloid β. It counts as cell-based. The protocol: In the presence of an autophagy activator, the expression levels of the LC3 gene, ATG5 gene, and Beclin 1 gene in human neuroblastoma (SH-SY5Y; obtained from ATCC) were measured by the following test method, and the effect of promoting the expression of the LC3 gene, ATG5 gene, and Beclin 1 gene by an autophagy activator was evaluated.
In the following examples and comparative examples, tests were performed by adding amyloid β, which is known to cause a decrease in autophagy in nerve cells, to each medium.
SH-SY5Y cells were prepared at a seeding density of 10000 cells/cm^2 and cultured for 24 hours in D-MEM medium/Ham's F-12 medium (manufactured by Sigma-Aldrich) to which 10% fetal bovine serum (manufactured by MP Biomedicals) was added. Next, in Example 15, the inositol derivative A dissolved in purified water was added to the medium such that the final concentration of the inositol derivative A was 10-4% (V/V). […]
Then, using Nucleospin (registered trademark) RNA kit (manufactured by Takara Bio Inc.), RNA was extracted from SH-SY5Y cells in each example, and cDNA was synthesized from the obtained RNA. Next, using this cDNA as a template, by quantitative real-time PCR, the expression level of each gene was quantified using primers (manufactured by Takara Bio Inc.) specific to the LC3 gene, ATG5 gene, and Beclin 1 gene, respectively. […]

For the compound `O[C@H]1[C@H](O)[C@@H](O)[C@H](O)[C@@H](O)[C@H]1O` [Comparative Example 2, myo-inositol], the “Relative gene expression level mTOR” value in experiment [1] (24 hours, 10^−3% (V/V) inositol or inositol derivative A, with the vitamin derivative of the example where added, GAPDH-standardized, Comparative Example 3 (purified water) = 1.00) was determined as 0.95. In addition, in experiment [1] (compared to Comparative Example 3 (purified water only)), the “expression level of the mTOR gene, in words” value is on record as “almost the same”. Moreover, in experiment [2] (SH-SY5Y cells with amyloid β, compared to Reference Example 3 (purified water only, no amyloid β)), the “expression level of the ATG5 gene, in words” value was “slightly increased”. Besides, in experiment [2] (SH-SY5Y cells, 20 μM amyloid β present, 48 hours, 10^−3% (V/V) inositol or inositol derivative A, with the vitamin derivative of the example where added, Reference Example 3 (purified water, no amyloid β) = 1.00), the “Relative gene expression level ATG5” value was 1.39.
